Legend:
Type in all cases: in vivo
[1] = system: weeds; experiment: Post-emergence test (greenhouse), damage to weeds; settings: for activity against weeds: test plants of 5-15 cm sprayed, rated after three weeks as % damage vs untreated control
Experimental: (§1) Solvent: 5 parts by weight of acetone
(§2) Emulsifier: 1 part by weight of alkylaryl polyglycol ether
(§3) To product a suitable preparation of active compound, 1 part by weight of active compound is mixed with the stated amount of solvent, the stated amount of emulsifier is added and the concentrate is diluted with water to the desired concentration.
(§4) Test plants of a height of 5-15 cm are sprayed with the preparation of active compound such that the particular amounts of active compound desired are applied per unit area. The concentration of the spray liquor is chosen such that the particular amounts of active compound desired are applied in 10001 of water/ha.
(§5) After three weeks, the degree of damage to the plants is rated in % damage in comparison to the development of the untreated control.
(§6) The figures denote: • 0%=no effect (like untreated control) • 100%=total destruction

[2] = system: crop plants, such as, for example, corn, wheat and sugar beet; experiment: Post-emergence test (greenhouse), tolerance by crop plants; settings: after three weeks
Experimental: as §1, §2, §3, §4, §5, §6

[3] = system: apple mildew pathogen Podosphaera leucotricha; experiment: Podosphaera test (apple)/protective; settings: protective; for % efficacy: apple, application rate 100 g/ha, 10 days after inoculation; for efficacy against mildew of apples (Podosphaera leucotricha): application rate of 100 g/ha, evaluation 10 days after the inoculation
Experimental: Solvent: 49 parts by weight of acetone
as §2
To produce a suitable preparation of active compound, 1 part by weight of active compound is mixed with the stated amounts of solvent and emulsifier, and the concentrate is diluted with water to the desired concentration.
To test for protective activity, young plants are sprayed with the preparation of active compound at the stated application rate. After the spray coating has dried on, the plants are inoculated with an aqueous spore suspension of the apple mildew pathogen Podosphaera leucotricha. The plants are then placed in a greenhouse at about 23° C. and a relative atmospheric humidity of about 70%.
Evaluation is carried out 10 days after the inoculation. 0% means an efficacy which corresponds to that of the control, whereas an efficacy of 100% means that no infection is observed.

[4] = system: weeds; experiment: Pre-emergence test (greenhouse), damage to weeds; settings: for activity against weeds: soil sprayed 24 hours after sowing, rated after three weeks as % damage vs untreated control
Experimental: as §1, §2
(§7) To produce a suitable preparation of active compound, 1 part by weight of active compound is mixed with the stated amount of solvent, the stated amount of emulsifier is added and the concentrate is diluted with water to the desired concentration.
(§8) Seeds of the test plants are sown in normal soil. After 24 hours, the soil is sprayed with the preparation of active compounds such that the particular amount of active compound desired is applied per unit area. The concentration of active compound in the spray liquor is chosen such that the particular amount of active compound desired is applied in 1000 liters of water per hectare.
(§9) After three weeks, the degree of damage to the plants is rated in % damage in comparison to the development of the untreated control. The figures denote: • 0%=no effect (like untreated control) • 100%=total destruction

[5] = system: crop plants, such as, for example, wheat and soya; experiment: Pre-emergence test (greenhouse), tolerance by crop plants; settings: 15 g of a.i./ha, after three weeks
Experimental: as §1, §2, §7, §8, §9

[6] = 15 g of a.i./ha, after three weeks
[7] = 60 g of a.i./ha, after three weeks, Table A6
[8] = 30 g of a.i./ha, after three weeks, Table B5
[9] = 15 g of a.i./ha, after three weeks, Table A2
[10] = 30 g of a.i./ha, after three weeks, Table B7
[11] = 60 g of a.i./ha, after three weeks, Table A7
[12] = 30 g of a.i./ha, after three weeks, Table B9
[13] = 250 g of a.i./ha, after three weeks

`CCc1cccc(OCCCF)c1S(=O)(=O)NC(=O)Nc1nc(Cl)cc(OC)n1` [(18)] was tested, and the “% damage Abutilon” value [1, 6] was 90%, the “% damage Amaranthus” value [1, 6] was 95% and the “% damage Matricaria” value [1, 6] was 95%. For the same compound, the “% damage Xanthium” value [1, 6] was 90% and the “% damage Wheat” value ([2]; 15 g of a.i./ha) was 15%.

In the case of `COc1nc(C)nc(NC(=O)NS(=O)(=O)c2c(C)cccc2OCCF)n1` [drawing 18], the “% efficacy” value [3] is reported as 100%.

In the case of `COc1cc(Cl)nc(NC(=O)NS(=O)(=O)c2c(C)cccc2OCCCF)n1` [(14)], the “% damage Abutilon” value [4, 7] is reported as 95%, the “% damage Alopecurus” value [4, 7] is reported as 100% and the “% damage Amaranthus” value [4, 7] is reported as 95%. For the same compound, the “% damage Echinochloa” value [4, 7] was 100%, the “% damage Galium” value [4, 7] was 90% and the “% damage Sinapis” value [4, 7] was 95%. For the same compound, the “% damage Amaranthus” value [1, 8] was 100%, the “% damage Ipomoea” value [1, 8] was 95% and the “% damage Matricaria” value [1, 8] was 90%. The “% damage Sugar beet” value ([2]; 30 g of a.i./ha, Table B5) was 0% and the “% damage Wheat” value ([2]; 30 g of a.i./ha, Table B5) was 0%.

In the case of `COc1cc(OC)nc(NC(=O)NS(=O)(=O)c2c(C)cccc2OCCF)n1` [Example 24], the activity against weeds [4] is reported as “very strong activity”, the activity against weeds [1] is reported as “very strong activity” and the “efficacy against mildew of apples (Podosphaera leucotricha)” value (from here on “efficacy against mildew of apples”) [3] is reported as 100%.

With `CCCc1cccc(OCCF)c1S(=O)(=O)NC(=O)Nc1nc(OC)cc(OC)n1` [Example 26] the activity against weeds [4] was “very strong activity”, the activity against weeds [1] was “very strong activity” and the “efficacy against mildew of apples” value [3] was 100%.

For `COc1cc(OC)nc(NC(=O)NS(=O)(=O)c2c(OCCF)cccc2C(F)(F)F)n1` [(4)], the “% damage Alopecurus” value [4, 9] was 80%, the “% damage Chenopodium” value [4, 9] was 100% and the “% damage Matricaria” value [4, 9] was 100%. For the same compound, the “% damage Sorghum” value [4, 9] was 80%, the “% damage Viola” value [4, 9] was 100% and the “% damage Abutilon” value [1, 10] was 95%. The “% damage Alopecurus” value [1, 10] was 90%, the “% damage Amaranthus” value [1, 10] was 100% and the “% damage Ipomoea” value [1, 10] was 95%. The “% damage Matricaria” value [1, 10] was 100%, the “% damage Viola” value [1, 10] was 95% and the “% damage Soya” value [5] was 0%. The “% damage Wheat” value [5] was 0%.

With `CCCc1cccc(OCCCF)c1S(=O)(=O)NC(=O)Nc1nc(OC)cc(OC)n1` [Example 25] the activity against weeds [4] was “very strong activity”, the activity against weeds [1] was “very strong activity” and the “efficacy against mildew of apples” value [3] was 100%.

In the case of `CCCc1cccc(OCCF)c1S(=O)(=O)NC(=O)Nc1nc(OC)cc(OC)n1` [drawing 20], the “% efficacy” value [3] is reported as 100%.

`CCc1cccc(OCCCF)c1S(=O)(=O)NC(=O)Nc1nc(C)cc(C)n1` [(6)] was tested, and the “% damage Abutilon” value [4, 11] was 90%, the “% damage Alopecurus” value [4, 11] was 80% and the “% damage Amaranthus” value [4, 11] was 90%. For the same compound, the “% damage Galium” value [4, 11] was 90%, the “% damage Setaria” value [4, 11] was 95% and the “% damage Sinapis” value [4, 11] was 90%. The “% damage Abutilon” value [1, 12] was 90%, the “% damage Alopecurus” value [1, 12] was 90% and the “% damage Amaranthus” value [1, 12] was 90%. The “% damage Ipomoea” value [1, 12] was 100% and the “% damage Xanthium” value [1, 12] was 95%.

With `CCCc1cccc(OCCF)c1S(=O)(=O)NC(=O)Nc1nc(OC)cc(OC)n1` [(26)] the “% damage Alopecurus” value [4, 13] was 100%, the “% damage Amaranthus” value [4, 13] was 100% and the “% damage Avena fatua” value [4, 13] was 90%. For the same compound, the “% damage Galium” value [4, 13] was 95%, the “% damage Setaria” value [4, 13] was 100% and the “% damage Xanthium” value [4, 13] was 95%. The “% damage Abutilon” value [1, 13] was 100%, the “% damage Alopecurus” value [1, 13] was 95% and the “% damage Amaranthus” value [1, 13] was 100%. The “% damage Avena fatua” value [1, 13] was 90%, the “% damage Galium” value [1, 13] was 90% and the “% damage Setaria” value [1, 13] was 90%. The “% damage Sinapis” value [1, 13] was 95%.
